Reference: patent US20060069132A1, “Azolecarboxamide herbicides” (priority 2004, published 2006)

Assays:
Surinam grass = assay: Test B pre-/postemergence herbicide test; format: in vivo, Urochloa decumbens; conditions: for Surinam Grass plant response rating (0 to 100 scale) / Plant response rating, Surinam Grass: 0 = no effect, 100 = complete control, preemergence; for Surinam Grass plant response rating: postemergence
Outline: (§1)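 Herbicidal effect was judged by eye on a 0–100 scale after plants stood 13 to 15 days in the greenhouse following pre- or postemergence treatment with surfactant-containing formulations.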

corn = assay: Test B pre-/postemergence herbicide test; format: in vivo, Zea mays; conditions: for Corn plant response rating (0 to 100 scale) / Plant response rating, Corn: 0 = no effect, 100 = complete control, preemergence; for Corn plant response rating: postemergence
Outline: as §1

giant foxtail = assay: Test B pre-/postemergence herbicide test; format: in vivo, Setaria faberi; conditions: for Foxtail, Giant plant response rating (0 to 100 scale) / Plant response rating, Foxtail, Giant: 0 = no effect, 100 = complete control, preemergence; for Foxtail, Giant plant response rating: postemergence
Outline: as §1

lambsquarters = assay: Test B pre-/postemergence herbicide test; format: in vivo, Chenopodium album; conditions: for Lambsquarters plant response rating: postemergence
Outline: as §1

velvetleaf = assay: Test B pre-/postemergence herbicide test; format: in vivo, Abutilon theophrasti; conditions: for Velvetleaf plant response rating (0 to 100 scale) / Plant response rating, Velvetleaf: 0 = no effect, 100 = complete control, preemergence; for Velvetleaf plant response rating: postemergence
Outline: as §1

cocklebur = assay: Test B pre-/postemergence herbicide test; format: in vivo, Xanthium strumarium; conditions: for Cocklebur plant response rating (0 to 100 scale) / Plant response rating, Cocklebur: 0 = no effect, 100 = complete control, preemergence; for Plant response rating, Cocklebur / Cocklebur plant response rating: visual rating; for Cocklebur plant response rating: postemergence, scale 0 (no effect) to 100 (complete control)
Outline: as §1

[1] = test system: small flower umbrella sedge; assay: Test B flooded paddy test; format: in vivo, Cyperus difformis; conditions: 1000 g ai/ha, scale 0 to 100 (0 no effect, 100 complete control)
Outline: (§2)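 Treated at 2-leaf (paddy) or 1–4-leaf, 2–18 cm (postemergence); greenhouse 13–15 d; visual score vs control, 0 none to 100 complete control; dash = not tested.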

large crabgrass = assay: Test B pre-/postemergence herbicide test; format: in vivo, Digitaria sanguinalis; conditions: for Crabgrass, Large plant response rating (0 to 100 scale) / Plant response rating, Crabgrass, Large: 0 = no effect, 100 = complete control, preemergence; for Crabgrass, Large plant response rating: postemergence
Outline: as §1

barnyardgrass [2] = assay: Test B pre-/postemergence herbicide test; format: in vivo, Echinochloa crus-galli; conditions: for Barnyardgrass plant response rating (0 to 100 scale) / Plant response rating, Barnyardgrass: 0 = no effect, 100 = complete control, preemergence; for Plant response rating, Barnyardgrass / Barnyardgrass plant response rating: visual rating; for Barnyardgrass plant response rating: postemergence, scale 0 (no effect) to 100 (complete control)
Outline: as §1

blackgrass = assay: Test B postemergence herbicide test; format: in vivo, Alopecurus myosuroides; conditions: postemergence, visual rating, scale 0 (no effect) to 100 (complete control)
Outline: as §2

rice [3] = assay: Test B flooded paddy test; format: in vivo, Oryza sativa; conditions: 1000 g ai/ha, scale 0 to 100 (0 no effect, 100 complete control)
Outline: as §2

barnyardgrass [4] = assay: Test B flooded paddy test; format: in vivo, Echinochloa crus-galli; conditions: 1000 g ai/ha, scale 0 to 100 (0 no effect, 100 complete control)
Outline: as §2

pigweed = assay: Test B pre-/postemergence herbicide test; format: in vivo, Amaranthus retroflexus; conditions: for Pigweed plant response rating (0 to 100 scale) / Plant response rating, Pigweed: 0 = no effect, 100 = complete control, preemergence; for Pigweed plant response rating: postemergence
Outline: as §1

morningglory = assay: Test B pre-/postemergence herbicide test; format: in vivo, Ipomoea coccinea; conditions: for Morningglory plant response rating (0 to 100 scale) / Plant response rating, Morningglory: 0 = no effect, 100 = complete control, preemergence; for Morningglory plant response rating: postemergence
Outline: as §1

rice [5] = assay: Test B pre-/postemergence herbicide test; format: in vivo, Oryza sativa; conditions: 0 = no effect, 100 = complete control, preemergence; for Rice plant response rating (0 to 100 scale): 125 g ai/ha; for Plant response rating, Rice: 500 g ai/ha, visual rating
Outline: as §1

wheat = assay: Test B postemergence herbicide test; format: in vivo, Triticum aestivum; set-up: key to Wheat plant response rating: 0 = no effect, 100 = complete control; conditions: postemergence
Outline: (§3)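 Visual ratings, 0 (no effect) to 100 (complete control), made versus controls after 13–15 d greenhouse. Paddy plants treated at 2-leaf stage; postemergence plants at 1- to 4-leaf stage, 2–18 cm tall.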

wild oat = assay: Test B postemergence herbicide test; format: in vivo, Avena fatua; conditions: postemergence
Outline: as §3

ducksalad = assay: Test B flooded paddy test; format: in vivo, Heteranthera limosa; conditions: 1000 g ai/ha, scale 0 to 100 (0 no effect, 100 complete control)
Outline: as §2

[6] = 125 g ai/ha, visual rating, scale 0 (no effect) to 100 (complete control)
[7] = 500 g ai/ha, scale 0 to 100, 0 is no effect, 100 is complete control

Compound: CCCOC(=O)c1cc(NC(=O)c2cc(C(C)(C)C)nn2CC)c(F)cc1F [Compound 249]
- Surinam Grass plant response rating (0 to 100 scale) (Surinam grass; 125 g ai/ha): 0
- Plant response rating, Surinam Grass (Surinam grass; 500 g ai/ha, visual rating): 20
- Surinam Grass plant response rating (Surinam grass; [6]): 10
- Surinam Grass plant response rating (Surinam grass; [7]): 30
- Corn plant response rating (0 to 100 scale) (corn; 125 g ai/ha): 0
- Plant response rating, Corn (corn; 500 g ai/ha, visual rating): 0
- Corn plant response rating (corn; [6]): 10
- Corn plant response rating (corn; [7]): 20
- Foxtail, Giant plant response rating (0 to 100 scale) (giant foxtail; 125 g ai/ha): 0
- Plant response rating, Foxtail, Giant (giant foxtail; 500 g ai/ha, visual rating): 0
- Foxtail, Giant plant response rating (giant foxtail; [6]): 20
- Foxtail, Giant plant response rating (giant foxtail; [7]): 30
- Lambsquarters plant response rating (0 to 100 scale) (lambsquarters; 125 g ai/ha, 0 = no effect, 100 = complete control, preemergence): 0
- Lambsquarters plant response rating (lambsquarters; [6]): 10
- Lambsquarters plant response rating (lambsquarters; [7]): 20
- Velvetleaf plant response rating (0 to 100 scale) (velvetleaf; 125 g ai/ha): 0
- Plant response rating, Velvetleaf (velvetleaf; 500 g ai/ha, visual rating): 0
- Velvetleaf plant response rating (velvetleaf; [6]): 10
- Velvetleaf plant response rating (velvetleaf; [7]): 20
- Cocklebur plant response rating (0 to 100 scale) (cocklebur; 125 g ai/ha): 0
- Plant response rating, Cocklebur (cocklebur; 500 g ai/ha): 0
- Cocklebur plant response rating (cocklebur; 125 g ai/ha): 30
- Cocklebur plant response rating (cocklebur; 500 g ai/ha): 30
- Sedge, Umbrella plant response rating [1]: 30
- Crabgrass, Large plant response rating (0 to 100 scale) (large crabgrass; 125 g ai/ha): 0
- Plant response rating, Crabgrass, Large (large crabgrass; 500 g ai/ha, visual rating): 0
- Crabgrass, Large plant response rating (large crabgrass; [6]): 10
- Crabgrass, Large plant response rating (large crabgrass; [7]): 30
- Barnyardgrass plant response rating (0 to 100 scale) (barnyardgrass [2]; 125 g ai/ha): 0
- Plant response rating, Barnyardgrass (barnyardgrass [2]; 500 g ai/ha): 0
- Barnyardgrass plant response rating (barnyardgrass [2]; 125 g ai/ha): 10
- Barnyardgrass plant response rating (barnyardgrass [2]; 500 g ai/ha): 20
- Blackgrass plant response rating (blackgrass; 125 g ai/ha): 20
- Blackgrass plant response rating (blackgrass; 500 g ai/ha): 30
- Rice plant response rating (rice [3]): 0
- Barnyardgrass plant response rating (barnyardgrass [4]): 0
- Pigweed plant response rating (0 to 100 scale) (pigweed; 125 g ai/ha): 0
- Plant response rating, Pigweed (pigweed; 500 g ai/ha, visual rating): 0
- Pigweed plant response rating (pigweed; [6]): 20
- Pigweed plant response rating (pigweed; [7]): 80
- Morningglory plant response rating (0 to 100 scale) (morningglory; 125 g ai/ha): 0
- Plant response rating, Morningglory (morningglory; 500 g ai/ha, visual rating): 10
- Morningglory plant response rating (morningglory; [6]): 20
- Morningglory plant response rating (morningglory; [7]): 30
- Rice plant response rating (0 to 100 scale) (rice [5]): 0
- Plant response rating, Rice (rice [5]): 0
- Wheat plant response rating (wheat; [6]): 30
- Wheat plant response rating (wheat; [7]): 30
- Oat, Wild plant response rating (wild oat; [6]): 30
- Oat, Wild plant response rating (wild oat; [7]): 40
- Ducksalad plant response rating (ducksalad): 0

Compound: CCN(C)C(=O)c1cc(NC(=O)c2cc(C(C)(C)C)nn2CC)c(F)cc1F [Compound 254]
- Surinam Grass plant response rating (0 to 100 scale) (Surinam grass; 125 g ai/ha): 0
- Plant response rating, Surinam Grass (Surinam grass; 500 g ai/ha, visual rating): 40
- Surinam Grass plant response rating (Surinam grass; [6]): 10
- Surinam Grass plant response rating (Surinam grass; [7]): 10
- Corn plant response rating (0 to 100 scale) (corn; 125 g ai/ha): 0
- Plant response rating, Corn (corn; 500 g ai/ha, visual rating): 0
- Corn plant response rating (corn; [6]): 0
- Corn plant response rating (corn; [7]): 10
- Foxtail, Giant plant response rating (0 to 100 scale) (giant foxtail; 125 g ai/ha): 0
- Plant response rating, Foxtail, Giant (giant foxtail; 500 g ai/ha, visual rating): 30
- Foxtail, Giant plant response rating (giant foxtail; [6]): 0
- Foxtail, Giant plant response rating (giant foxtail; [7]): 0
- Plant response rating, Lambsquarters (lambsquarters; 500 g ai/ha, visual rating, 0 = no effect, 100 = complete control, preemergence): 100
- Lambsquarters plant response rating (lambsquarters; [6]): 10
- Lambsquarters plant response rating (lambsquarters; [7]): 20
- Velvetleaf plant response rating (0 to 100 scale) (velvetleaf; 125 g ai/ha): 0
- Plant response rating, Velvetleaf (velvetleaf; 500 g ai/ha, visual rating): 20
- Velvetleaf plant response rating (velvetleaf; [6]): 10
- Velvetleaf plant response rating (velvetleaf; [7]): 10
- Cocklebur plant response rating (0 to 100 scale) (cocklebur; 125 g ai/ha): 0
- Plant response rating, Cocklebur (cocklebur; 500 g ai/ha): 0
- Cocklebur plant response rating (cocklebur; 125 g ai/ha): 20
- Cocklebur plant response rating (cocklebur; 500 g ai/ha): 20
- Sedge, Umbrella plant response rating [1]: 60
- Crabgrass, Large plant response rating (0 to 100 scale) (large crabgrass; 125 g ai/ha): 10
- Plant response rating, Crabgrass, Large (large crabgrass; 500 g ai/ha, visual rating): 100
- Crabgrass, Large plant response rating (large crabgrass; [6]): 10
- Crabgrass, Large plant response rating (large crabgrass; [7]): 10
- Barnyardgrass plant response rating (0 to 100 scale) (barnyardgrass [2]; 125 g ai/ha): 0
- Plant response rating, Barnyardgrass (barnyardgrass [2]; 500 g ai/ha): 40
- Barnyardgrass plant response rating (barnyardgrass [2]; 125 g ai/ha): 0
- Barnyardgrass plant response rating (barnyardgrass [2]; 500 g ai/ha): 10
- Blackgrass plant response rating (blackgrass; 125 g ai/ha): 0
- Blackgrass plant response rating (blackgrass; 500 g ai/ha): 10
- Rice plant response rating (rice [3]): 80
- Barnyardgrass plant response rating (barnyardgrass [4]): 30
- Pigweed plant response rating (0 to 100 scale) (pigweed; 125 g ai/ha): 0
- Plant response rating, Pigweed (pigweed; 500 g ai/ha, visual rating): 100
- Pigweed plant response rating (pigweed; [6]): 10
- Pigweed plant response rating (pigweed; [7]): 30
- Morningglory plant response rating (0 to 100 scale) (morningglory; 125 g ai/ha): 0
- Plant response rating, Morningglory (morningglory; 500 g ai/ha, visual rating): 10
- Morningglory plant response rating (morningglory; [6]): 20
- Morningglory plant response rating (morningglory; [7]): 30
- Rice plant response rating (0 to 100 scale) (rice [5]): 0
- Plant response rating, Rice (rice [5]): 20
- Wheat plant response rating (wheat; [6]): 10
- Wheat plant response rating (wheat; [7]): 20
- Oat, Wild plant response rating (wild oat; [6]): 20
- Oat, Wild plant response rating (wild oat; [7]): 20
- Ducksalad plant response rating (ducksalad): 90
